Consider 9 compounds from ChEMBL document CHEMBL1136787, “Design, synthesis, and biological evaluation of monopyrrolinone-based HIV-1 protease inhibitors” (J Med Chem, 2003).

Experiment [1] can be described thus: Ratio (CIC95/IC50) of cellular antiviral activity over the isolated enzyme potency. Type of experiment: functional.
Experiment [2] deals with Human immunodeficiency virus 1. Description: Anti-viral activity was determined. Type of experiment: functional. The settings on record: read-out: CIC95.
Experiment [3] deals with T1, Human immunodeficiency virus type 1 protease (Human immunodeficiency virus 1, UniProt Q72874). Nature of the experiment: Inhibitory activity against HIV-1 protease was determined.
In experiment [4] the target is T1, Human immunodeficiency virus type 1 protease. Description: Inhibitory activity against HIV-1 protease mutant was determined.

As for `O=C(N[C@@H](Cc1ccccc1)[C@@H](O)C[C@@H](Cc1ccccc1)C(=O)N[C@H]1c2ccccc2C[C@H]1O)OC1CCOC1` (stereo partly drawn), in experiment [1], the C/I is 100. For the same compound, in experiment [2], the IC95 worked out at 3 nM.

Regarding `CC(C)(C)OC(=O)N[C@@H](Cc1ccccc1)[C@@H](O)C[C@@H](Cc1ccccc1)C(=O)N[C@H]1c2ccccc2C[C@H]1O`, the C/I in experiment [1] is listed as 1333. Moreover, in experiment [2], the IC95 worked out at 400 nM.

As to `CC(C)C[C@@]1(C2=C(O)[C@](Cc3ccccc3)(C[C@H](O)[C@H](Cc3ccccc3)NC(=O)OC(C)(C)C)N=C2)N=CC([C@@H](Cc2ccccc2)C(N)=O)=C1O`, the IC95 in experiment [2] was 1500 nM. In experiment [3], the midpoint of inhibition, the IC50, lay at 10 nM.

For the compound `CC(C)(C)NC(=O)[C@@H]1CN(Cc2cccnc2)CCN1C[C@@H](O)C[C@@H](Cc1ccccc1)C(=O)N[C@H]1c2ccccc2C[C@H]1O.O`, in experiment [1], the C/I is 69. Also, the IC95 in experiment [2] is 25 nM.

For the compound `O=C(N[C@@H](Cc1ccccc1)[C@@H](O)C[C@]1(Cc2ccccc2)N=CC(C2CNC(=O)c3ccccc32)=C1O)O[C@H]1CCOC1` (single isomer, unassigned; (+)), the C/I in experiment [1] was determined as 137. Further, the IC95 in experiment [2] is 781 nM.

On to `CC(C)(C)OC(=O)N[C@@H](Cc1ccccc1)[C@@H](O)C[C@]1(Cc2ccccc2)N=CC(C2c3ccccc3C[C@H]2O)=C1O` (single isomer, unassigned; (-)), for which the IC95 in experiment [2] was 800 nM.

In the case of `O=C(N[C@@H](Cc1ccccc1)[C@@H](O)C[C@]1(Cc2ccccc2)N=CC(C2c3ccccc3C[C@H]2O)=C1O)O[C@H]1CCOC1` (single isomer, unassigned; (-)), in experiment [4], 129 nM corresponded to half-maximal inhibition (IC50). Moreover, the IC95 in experiment [2] stood at 100 nM.

For the compound `CC(C)C[C@@]1(C2=C(O)[C@](Cc3ccccc3)(C[C@H](O)[C@H](Cc3ccccc3)NC(=O)OC3CCOC3)N=C2)N=CC([C@@H](Cc2ccccc2)C(N)=O)=C1O` (single isomer, unassigned; (-)), the IC95 in experiment [2] was found to be 800 nM. The IC50 (usually the concentration that inhibits the measured activity by half) in experiment [3] came out at 1.3 nM.

In experiment [4], `NC(=O)O[C@@H]1Cc2ccccc2C1C1=C(O)[C@](Cc2ccccc2)(C[C@H](O)[C@H](Cc2ccccc2)NC(=O)O[C@H]2CCOC2)N=C1` (single isomer, unassigned; (-)) displayed an IC50 of 364 nM. Besides, the C/I in experiment [1] turned out to be 125. For the same compound, the IC95 in experiment [2] came to 250 nM.
